Format in all cases: biochemical
In one assay the target is T1, HDAC2 (Homo sapiens, UniProt Q92769).
T1 construct: purchased Enzo Life Sciences
The experiment in a line: HDAC Inhibition Screening Assay (FLUOR DE LYS Fluorimetric Drug Discovery Kit), HDAC2. Particulars: for inhibition at 2 µM: 2 μM compound; for inhibition at 10 µM: 10 μM compound; for inhibition at 50 µM: 50 μM compound. The protocol:
(§1) The HDAC1/HDAC2/HDAC3 in vitro activities are detected by Enzo Life Sciences' HDAC1/HDAC2/HDAC3 Fluorimetric Drug Discovery Kit. The assay is based on the FLUOR DE LYS® Substrate and FLUOR DE LYS® Developer combination. The assay procedure has two steps. First, the FLUOR DE LYS® Substrate, which comprises an acetylated lysine side chain, is incubated with HDAC1/HDAC2/HDAC3, respectively. Deacetylation of the substrate sensitizes the substrate so that, in the second step, treatment with the FLUOR DE LYS® Developer produces a fluorophore. The signals of the test compounds (Compounds 1˜83; at concentrations of 2 μM, 10 μM and 50 μM) in 96-well plates are detected at 360 nm or 485 nm excitation and 460 nm or 530 nm emission with a Molecular Devices SpectraMax i3 Imaging Cytometer. The HDAC1/HDAC2/HDAC3 activities are expressed in percentage of basal control minus baseline control.

In the next assay the target is T2, HDAC3 (Homo sapiens, UniProt O15379).
T2 construct: purchased Enzo Life Sciences
T2 sequence (O15379 whole entry): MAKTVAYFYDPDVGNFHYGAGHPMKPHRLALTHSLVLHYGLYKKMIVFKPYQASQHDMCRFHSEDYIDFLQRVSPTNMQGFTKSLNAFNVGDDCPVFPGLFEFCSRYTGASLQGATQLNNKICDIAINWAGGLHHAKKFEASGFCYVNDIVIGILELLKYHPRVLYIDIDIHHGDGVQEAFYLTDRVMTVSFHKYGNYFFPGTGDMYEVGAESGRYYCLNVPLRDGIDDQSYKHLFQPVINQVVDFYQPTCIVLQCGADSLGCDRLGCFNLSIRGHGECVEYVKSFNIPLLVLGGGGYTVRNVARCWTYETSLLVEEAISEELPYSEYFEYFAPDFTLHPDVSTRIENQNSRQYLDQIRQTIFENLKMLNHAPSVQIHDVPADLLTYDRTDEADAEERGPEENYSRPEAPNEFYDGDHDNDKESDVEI
T2 sequence (O75376 395-489 partner limits assumed): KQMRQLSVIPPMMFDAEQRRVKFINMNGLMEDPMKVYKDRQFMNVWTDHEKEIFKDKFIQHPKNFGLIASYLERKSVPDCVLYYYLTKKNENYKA
The experiment in a line: HDAC Inhibition Screening Assay (FLUOR DE LYS Fluorimetric Drug Discovery Kit), HDAC3. Particulars: for inhibition at 2 µM: 2 μM compound; for inhibition at 10 µM: 10 μM compound; for inhibition at 50 µM: 50 μM compound. On the procedure: as §1

In the next assay the target is T3, ATX (autotaxin) (Homo sapiens, UniProt Q13822).
T3 construct: purchased Cayman 10803
The experiment in a line: Autotaxin Inhibition Screening Assay (choline release from LPC, LPC-CR). As to conditions: for inhibition at 4 µM: 4 μM compound; for inhibition at 20 µM: 20 μM compound; for inhibition at 50 µM: 50 μM compound. On the procedure:
ATX (autotaxin) activity was measured by choline release from LPC in presence or absence of test compounds (Compounds 1˜83; at concentrations of 4 μM, 20 μM and 50 μM). Twenty (20) ng ATX (10803, Cayman, MI, USA) was incubated with 100 μM 14:0 LPC (855575P, Avanti, AL, USA) in a final volume of 100 μL buffer containing 50 mM Tris pH 8.0, 0.01% Triton X-100, 50 mM CaCl2, 1 unit/ml choline oxidase, 2 unit/ml horseradish peroxidase (HRP), 2 mM homovanilic acid (HVA). The relative amount of released choline was measured by HVA fluorescence in a 96-well plate. Fluorescent intensity was determined at λex/λem=320/450 nm every 60 sec for 90 min with a SpectraMax i3 (Molecular Devices, CA, USA). Data analysis was performed using GraphPad Prism (GraphPad, La Jolla CA, USA). Inhibition %=[1−(SlopeTA−SlopeBlank)/(SlopeVehicle−SlopeBlank)]×100% HDAC Inhibition Screening Assay

The next assay deals with T4, HDAC1 (Homo sapiens, UniProt Q13547).
T4 construct: purchased Enzo Life Sciences
T4 sequence (Q13547 whole entry): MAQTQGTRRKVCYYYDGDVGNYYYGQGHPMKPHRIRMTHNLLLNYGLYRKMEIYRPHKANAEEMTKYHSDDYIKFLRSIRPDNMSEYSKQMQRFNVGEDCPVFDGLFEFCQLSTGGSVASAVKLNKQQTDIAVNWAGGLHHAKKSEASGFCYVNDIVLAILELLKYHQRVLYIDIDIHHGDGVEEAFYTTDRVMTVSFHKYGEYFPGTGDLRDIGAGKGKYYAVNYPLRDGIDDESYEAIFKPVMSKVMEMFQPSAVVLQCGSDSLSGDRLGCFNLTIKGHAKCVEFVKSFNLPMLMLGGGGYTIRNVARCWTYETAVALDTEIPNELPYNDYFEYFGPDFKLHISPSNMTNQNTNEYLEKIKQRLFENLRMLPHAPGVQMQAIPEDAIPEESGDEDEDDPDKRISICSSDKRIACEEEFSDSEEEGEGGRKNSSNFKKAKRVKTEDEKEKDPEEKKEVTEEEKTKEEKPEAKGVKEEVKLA
The experiment in a line: HDAC Inhibition Screening Assay (FLUOR DE LYS Fluorimetric Drug Discovery Kit), HDAC1. Particulars: for inhibition at 2 µM: 2 μM compound; for inhibition at 10 µM: 10 μM compound; for inhibition at 50 µM: 50 μM compound. On the procedure:
as §1

Bounds are passed on as bounds.

T1 sequence (Q92769 whole entry): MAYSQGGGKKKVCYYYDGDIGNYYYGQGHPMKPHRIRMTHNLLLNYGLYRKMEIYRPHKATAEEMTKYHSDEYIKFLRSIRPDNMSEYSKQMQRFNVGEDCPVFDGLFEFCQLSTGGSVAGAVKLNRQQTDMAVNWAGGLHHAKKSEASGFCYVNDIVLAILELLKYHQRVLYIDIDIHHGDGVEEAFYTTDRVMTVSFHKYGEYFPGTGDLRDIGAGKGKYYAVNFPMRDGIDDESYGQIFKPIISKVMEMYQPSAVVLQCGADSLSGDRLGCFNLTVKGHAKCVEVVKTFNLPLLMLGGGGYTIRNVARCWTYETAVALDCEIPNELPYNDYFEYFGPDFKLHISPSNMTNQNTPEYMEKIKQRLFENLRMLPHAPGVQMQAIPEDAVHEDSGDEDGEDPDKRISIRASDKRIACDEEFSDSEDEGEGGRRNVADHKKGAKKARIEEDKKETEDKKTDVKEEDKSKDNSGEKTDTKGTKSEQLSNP

For the molecule `O=C(CCCCCCC(=O)Nc1ccc2c(c1)CCCC2=O)NO` [Compound 1, N^1-hydroxy-N^8-(5-oxo-5,6,7,8-tetrahydronaphthalen-2-yl)octanediamide], at HDAC2, the inhibition at 2 µM is above 80%, the inhibition at 10 µM was above 80% and the inhibition at 50 µM is above 80%. Moreover, on HDAC3, the inhibition at 2 µM was above 80%, the inhibition at 10 µM was above 80% and the inhibition at 50 µM is above 80%. At ATX (autotaxin), this molecule showed an inhibition at 4 µM below 50%, an inhibition at 20 µM below 50% and an inhibition at 50 µM below 50%. Further, at HDAC1, the inhibition at 2 µM is above 80%, the inhibition at 10 µM is above 80% and the inhibition at 50 µM was above 80%.

In the case of `O=C(CCCCCCC(=O)Nc1ccc2c(c1)CCCC2O)NO` (stereo not drawn) [Compound 2, N^1-hydroxy-N^8-(5-hydroxy-5,6,7,8-tetrahydronaphthalen-2-yl)octanediamide], on HDAC2, the inhibition at 2 µM is above 80%, the inhibition at 10 µM was above 80% and the inhibition at 50 µM was above 80%. Besides, at HDAC3, the inhibition at 2 µM was above 80%, the inhibition at 10 µM is above 80% and the inhibition at 50 µM was above 80%. For the same molecule, at ATX (autotaxin), the inhibition at 4 µM was below 50%, the inhibition at 20 µM is below 50% and the inhibition at 50 µM was below 50%. Also, on HDAC1, the inhibition at 2 µM was above 80%, the inhibition at 10 µM is above 80% and the inhibition at 50 µM was above 80%.

Take `O=C(CCCCCCC(=O)Nc1ccc2c(c1)CCC/C2=N\O)NO` [Compound 3, (E)-N1-hydroxy-N8-(5-(hydroxyimino)-5,6,7,8-tetrahydronaphthalen-2-yl)octanediamide]: on HDAC2, the inhibition at 2 µM is above 80%, the inhibition at 10 µM is above 80% and the inhibition at 50 µM was above 80%. Further, on HDAC3, the inhibition at 2 µM was above 80%, the inhibition at 10 µM is above 80% and the inhibition at 50 µM was above 80%. On ATX (autotaxin), this molecule returned an inhibition at 4 µM below 50%, an inhibition at 20 µM below 50% and an inhibition at 50 µM below 50%. Moreover, at HDAC1, the inhibition at 2 µM is above 80%, the inhibition at 10 µM is above 80% and the inhibition at 50 µM is above 80%.

Turning to `O=C(CCCCCCC(=O)Nc1ccc2c(c1)CC/C(=C\c1cc(C(F)(F)F)cc(C(F)(F)F)c1)C2=O)NO` [Compound 4], on HDAC2, the inhibition at 2 µM lay within 50 to 80%, the inhibition at 10 µM is above 80% and the inhibition at 50 µM was above 80%. Further, at HDAC3, the inhibition at 2 µM is below 50%, the inhibition at 10 µM lay in the range of 50 to 80% and the inhibition at 50 µM is above 80%. Moreover, on ATX (autotaxin), the inhibition at 4 µM was above 80%, the inhibition at 20 µM is above 80% and the inhibition at 50 µM is above 80%. For the same molecule, at HDAC1, the inhibition at 2 µM lay within 50 to 80%, the inhibition at 10 µM is above 80% and the inhibition at 50 µM is above 80%.

Turning to `Nc1cc(F)ccc1NC(=O)CCCCCCC(=O)Nc1ccc2c(c1)CC/C(=C\c1cc(C(F)(F)F)cc(C(F)(F)F)c1)C2=O` [Compound 5, (E)-N1-(2-amino-4-fluorophenyl)-N8-(6-(3,5-bis(trifluoromethyl)benzylidene)-5-oxo-5,6,7,8-tetrahydronaphthalen-2-yl)octanediamide], at HDAC2, the inhibition at 2 µM is below 50%, the inhibition at 10 µM is below 50% and the inhibition at 50 µM is below 50%. Moreover, on HDAC3, the inhibition at 2 µM was below 50%, the inhibition at 10 µM is below 50% and the inhibition at 50 µM was below 50%. On ATX (autotaxin), this molecule showed an inhibition at 4 µM of 50 to 80%, an inhibition at 20 µM of 50 to 80% and an inhibition at 50 µM of 50 to 80%. Moreover, at HDAC1, the inhibition at 2 µM is below 50%, the inhibition at 10 µM was below 50% and the inhibition at 50 µM was below 50%.

Consider `Nc1cc(F)ccc1NC(=O)/C=C/c1ccc2c(c1)CC/C(=C\c1cc(C(F)(F)F)cc(C(F)(F)F)c1)C2=O` [Compound 6, (E)-N-(2-amino-4-fluorophenyl)-3-(6-((E)-3,5-bis(trifluoromethyl)benzylidene)-5-oxo-5,6,7,8-tetrahydronaphthalen-2-yl)acrylamide], for which, at HDAC2, the inhibition at 2 µM is below 50%, the inhibition at 10 µM was below 50% and the inhibition at 50 µM is below 50%. Moreover, on HDAC3, the inhibition at 2 µM is below 50%, the inhibition at 10 µM was below 50% and the inhibition at 50 µM is below 50%. On ATX (autotaxin), this molecule displayed an inhibition at 4 µM of 50 to 80%, an inhibition at 20 µM of 50 to 80% and an inhibition at 50 µM of 50 to 80%. Moreover, on HDAC1, the inhibition at 2 µM is below 50%, the inhibition at 10 µM is below 50% and the inhibition at 50 µM was below 50%.

For the molecule `O=C(/C=C/c1ccc2c(c1)CC/C(=C\c1cc(C(F)(F)F)cc(C(F)(F)F)c1)C2=O)NO` [Compound 7, (E)-3-(6-((E)-3,5-bis(trifluoromethyl)benzylidene)-5-oxo-5,6,7,8-tetrahydronaphthalen-2-yl)-N-hydroxyacrylamide], on HDAC2, the inhibition at 2 µM is below 50%, the inhibition at 10 µM is below 50% and the inhibition at 50 µM lay in the range of 50 to 80%. Besides, at HDAC3, the inhibition at 2 µM was below 50%, the inhibition at 10 µM was below 50% and the inhibition at 50 µM was 50 to 80%. On ATX (autotaxin), this molecule gave an inhibition at 4 µM below 50%, an inhibition at 20 µM of 50 to 80% and an inhibition at 50 µM of 50 to 80%. Also, at HDAC1, the inhibition at 2 µM was below 50%, the inhibition at 10 µM was below 50% and the inhibition at 50 µM lay in the range of 50 to 80%.

In the case of `O=C(/C=C/c1ccc2c(c1)CC/C(=C\c1cc(C(F)(F)F)cc(C(F)(F)F)c1)C2=O)NCCCCCC(=O)NO` [Compound 8, 6-((E)-3-(6-((E)-3,5-bis(trifluoromethyl)benzylidene)-5-oxo-5,6,7,8-tetrahydronaphthalen-2-yl)acrylamido)-N-hydroxyhexanamide], at HDAC2, the inhibition at 2 µM was above 80%, the inhibition at 10 µM is above 80% and the inhibition at 50 µM is above 80%. Besides, at HDAC3, the inhibition at 2 µM is below 50%, the inhibition at 10 µM was above 80% and the inhibition at 50 µM is above 80%. At ATX (autotaxin), this molecule returned an inhibition at 4 µM above 80%, an inhibition at 20 µM above 80% and an inhibition at 50 µM above 80%. Also, at HDAC1, the inhibition at 2 µM lay in the range of 50 to 80%, the inhibition at 10 µM was above 80% and the inhibition at 50 µM was above 80%.

With `Nc1cc(F)ccc1NC(=O)CCCCCCC(=O)Nc1ccc2c(c1)CCC(Cc1cc(C(F)(F)F)cc(C(F)(F)F)c1)C2=O` (stereo not drawn) [Compound 9, N1-(2-amino-4-fluorophenyl)-N8-(6-(3,5-bis(trifluoromethyl)benzyl)-5-oxo-5,6,7,8-tetrahydronaphthalen-2-yl)octanediamide], at HDAC2, the inhibition at 2 µM was below 50%, the inhibition at 10 µM is below 50% and the inhibition at 50 µM is below 50%. Besides, on HDAC3, the inhibition at 2 µM is below 50%, the inhibition at 10 µM is below 50% and the inhibition at 50 µM is below 50%. At ATX (autotaxin), this molecule registered an inhibition at 4 µM below 50%, an inhibition at 20 µM below 50% and an inhibition at 50 µM below 50%. On HDAC1, the inhibition at 2 µM was below 50%, the inhibition at 10 µM was below 50% and the inhibition at 50 µM was below 50%.

Turning to `O=C(CCCCCCC(=O)Nc1ccc2c(c1)CCC(Cc1cc(C(F)(F)F)cc(C(F)(F)F)c1)C2=O)NO` (stereo not drawn) [Compound 10, N1-(6-(3,5-bis(trifluoromethyl)benzyl)-5-oxo-5,6,7,8-tetrahydronaphthalen-2-yl)-N8-hydroxyoctanediamide], on HDAC2, the inhibition at 2 µM is below 50%, the inhibition at 10 µM is above 80% and the inhibition at 50 µM is above 80%. Besides, on HDAC3, the inhibition at 2 µM was below 50%, the inhibition at 10 µM lay within 50 to 80% and the inhibition at 50 µM was above 80%. On ATX (autotaxin), this molecule showed an inhibition at 4 µM above 80%, an inhibition at 20 µM above 80% and an inhibition at 50 µM above 80%. On HDAC1, the inhibition at 2 µM is below 50%, the inhibition at 10 µM was in the range of 50 to 80% and the inhibition at 50 µM is above 80%.

What is called inhibition is the drop in the measured response relative to a control, in per cent.

Source of the values: patent US12162820B2 (TAIWANJ PHARMACEUTICALS CO., LTD., priority 2019, dated 2024).
